18 compounds from patent US8778966B2, “Quinolinone derivatives as PARP and tank inhibitors” (Janssen Pharmaceutica, NV, priority 2007, dated 2014) can be followed below.

Common to all, as to format: cell-based, human
Assay [1] relates to HCT116 cells. Briefly: Antiproliferative activity, Alamar Blue assay, HCT116 cells. The following applies: Homo sapiens, HCT-116, HCT116 cells; read-out: HCT116 antiproliferative activity pIC50 (converted). In short, it runs like this: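 Readout is resazurin fluorescence (ex 540, em 590 nm) after a 4 h dye incubation at 37 °C, following 4-day compound treatment of HCT116 cells plated 24 h earlier. Results expressed as % viable cells versus untreated; pIC50 derived from probit-fitted IC50.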
On the technique in general: Alamar Blue is a resazurin reagent that responds to reducing activity.

Assay [2] deals with HCT116 cells. The assay can be described thus: Mitotic arrest assay on HCT116 cells (phospho-histone H3 Ser10). The following applies: Homo sapiens, HCT-116, HCT116 cells; lowest active dose; read-out: Mitotic arrest HCT116 LAD (converted). The text has this:
Phosphorylation of histone H3 is tightly correlated with chromosome condensation during both mitosis and meiosis. The assay is a cellular immunosorbent assay wherein the sole antibody is labelled with a detectable conjugate. The phospho-histone H3 (ser10) antibody detects endogenous levels of histone H3 only when phosphorylated at serine 10. […] In parallel with antibody detection, the nuclei of the cells are stained with Hoechst 33342 for cell-counting. Cells are detected and analysed using the InCell Analyzer 1000 from GE Healthcare. Since both the antibody-detection as well as the Hoechst-staining are in the nucleus, the dual area object intensity algorithm is used for analysing the wells.
All compounds tested were dissolved in DMSO and further dilutions were made in culture medium. Final DMSO concentrations never exceeded 0.1% (v/v).
HCT116 cells (supplier: ATCC) (human colon carcinoma cell line) were cultivated in Mc Coy's 5 A medium (supplier: Gibco) supplemented with 10% foetal calf serum (FCS), 2 mM L-glutamine and gentamycin at 37° C. in a humidified incubator with 5% CO2.
HCT116 cells were seeded at 20.000 cells per well in a 96 well plate (black/clear bottom, poly-D-lysine coated, supplier Greiner), cultured overnight to adhere to the bottom of the plate and treated with compound for 6 hours at 37° C. in a humidified incubator. After incubation, the medium was removed and cells were fixed using 100 μl/well formaldehyde (Accustain®, Formaline solution 10% neutral buffered, contains 4% formaldehyde w/v, supplier: Sigma) was added. After incubation for 15 minutes at room temperature, the formaldehyde was removed and cells were incubated with methanol (−20° C.) for 15 minutes at room temperature. After incubation, cells were washed once with phosphate-buffered saline (PBS —CaCl2, —MgCl2, suppier: Gibco)/0.05% Tween 20. The anti-phospho-histone H3 (Ser10) Alexa Fluor 488 antibody (supplier: Cell signalling) is used for detection of the cells inmitosis. The antibody was diluted 1/50 in 5% bovine serum albumins (BSA) and 50 μl/well was used for incubation overnight at room temperature in the dark.
A 1/2000 dilution of Hoechtst 33342 (10 mg/ml, supplier: Invitrogen) was made and 100 μl/well was added for at least 30 minutes before acquiring images. The absorbance at dual wavelengths of 360/480 nm was measured using the InCell Analyzer 1000 from GE Healthcare and the results were then analyzed.
For each experiment, controls (containing no drug) and a blank incubation (containing no cells or drugs) were run in parallel. Analysis was done in triplicate. Low cell count wells were invalidated. The blank value was subtracted from all control and sample values and divided by the standard deviation of the measurements. The compounds were considered active when the obtained value (sigma) was >5. Herein the effects of test compounds are expressed as the lowest dose giving a sigma value of >5 (LAD) (see table F-2).

For assay [3], the system named is PC-3 cells. Briefly: Antiproliferative activity, Alamar Blue assay, PC-3 cells. As to conditions: Homo sapiens, PC-3, PC3 cells; read-out: PC3 antiproliferative activity pIC50 (converted). In short, it runs like this:
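Resazurin-based fluorescence (540 nm ex/590 nm em) measured after 4-day compound treatment plus 24 hrs dye incubation at 37° C. Cells plated at 4.5×10^3 cells/ml, adhered 24 hr first. pIC50 from probit-derived IC50 on % viable cells versus untreated, triplicate wells.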

Turning to `CCc1cc2ccc(C(C)(C#N)Cc3cccc(N)c3)cc2[nH]c1=O` (stereo not drawn) [Compound 15], the results for the IC50 in assay [1] and in assay [3] were 1000 nM and 2510 nM, respectively. In assay [2], the minimal effective concentration was 1 µM.
The corresponding values for `CCc1cc2ccc(C(C)(C#N)Cc3cccc(F)c3F)cc2[nH]c1=O` (stereo not drawn) [Compound 120] are 251 nM, 794 nM and 0.1 µM.
The corresponding values for `CCc1cc2ccc(C(C)(C#N)CCOc3ccc(Cl)cc3Cl)cc2[nH]c1=O` (stereo not drawn) [Compound 154] are 398 nM, 398 nM and 0.316 µM.
In the same order, the values of `CCc1cc2ccc(C(C)(C#N)CCOc3ccccc3)cc2[nH]c1=O` (stereo not drawn) [Compound 145] are 398 nM, 501 nM and 0.316 µM.
Turning to `CCc1cc2ccc(C(C)(C#N)CCOc3ccc(C(C)(C)C)cc3)cc2[nH]c1=O` (stereo not drawn) [Compound 167], the IC50 in assay [1] was over 10000 nM; in assay [3], 7940 nM. Also, the minimal effective concentration in assay [2] is 1 µM.
In the same order, the values of `CCc1cc2ccc(C(C)(C#N)Cc3c(F)cccc3F)cc2[nH]c1=O` (stereo not drawn) [Compound 138] are 251 nM, 1000 nM and 0.2 µM.
The corresponding values for `CCc1cc2ccc(C(C)(C#N)CCOc3ccc(SC)cc3)cc2[nH]c1=O` (stereo not drawn) [Compound 155] are 6310 nM, 1580 nM and 1 µM.
The corresponding values for `CCc1cc2ccc(C(C)(C#N)CCOc3ccc(Cl)cc3)cc2[nH]c1=O` (stereo not drawn) [Compound 146] are 398 nM, 501 nM and 0.316 µM.
For `CCc1cc2ccc(C(C)(C#N)Cc3ccc4c(c3)nnn4C)cc2[nH]c1=O` (stereo not drawn) [Compound 123], the IC50 in assay [1] is 3980 nM; in assay [3], over 10000 nM. Further, in assay [2], the minimal effective concentration is 3.16 µM.
On to `CCc1cc2ccc(C(C)(C#N)Cc3ccc(OC(F)(F)F)cc3)cc2[nH]c1=O` (stereo not drawn) [Compound 114], for which the IC50 in assay [1] and in assay [3] was 1580 nM each time. In addition, the minimal effective concentration in assay [2] is 1 µM.
Turning to `CCc1cc2ccc(C(C)(C#N)CCOc3ccccc3Cl)cc2[nH]c1=O` (stereo not drawn) [Compound 152], the results for the IC50 in assay [1] and in assay [3] were 631 nM and 1580 nM, respectively. In assay [2], the minimal effective concentration was 0.316 µM.
In the same order, the values of `CCc1cc2ccc(C(C)(C#N)Cc3cc(Cl)cc(Cl)c3)cc2[nH]c1=O` (stereo not drawn) [Compound 141] are 126 nM, 79.4 nM and 0.1 µM.
In the same order, the values of `CCc1cc2ccc(C(C)(C#N)Cc3cccc(C(=O)OC)c3)cc2[nH]c1=O` (stereo not drawn) [Compound 12] are 31.6 nM, 63.1 nM and 0.1 µM.
The corresponding values for `CCc1cc2ccc(C(C)(C#N)Cc3ccc(C)cc3)cc2[nH]c1=O` (stereo not drawn) [Compound 117] are 2510 nM, 2000 nM and 1 µM.
Take `CCc1cc2ccc(C(C)(C#N)Cc3cccc(C(=O)NC)c3)cc2[nH]c1=O` (stereo not drawn) [Compound 13]: the IC50 in assay [1] and in assay [3] was 7940 nM each time. Moreover, the minimal effective concentration in assay [2] is 1 µM.
Regarding `Cc1cc2ccc([C@@](C)(C#N)CCOc3ccccc3)cc2[nH]c1=O` (single isomer, unassigned) [Compound 164], the IC50 in assay [1] and in assay [3] was 1000 nM throughout. The minimal effective concentration in assay [2] was 0.1 µM.
In the case of `CCc1cc2ccc(C(C)(C#N)CCOc3ccc(C#N)cc3)cc2[nH]c1=O` (stereo not drawn) [Compound 161], the IC50 in assay [1] and in assay [3] was 501 nM throughout. In addition, in assay [2], the minimal effective concentration was 0.1 µM.
On to `CCc1cc2ccc(C(C)(C#N)Cc3c(Cl)cccc3Cl)cc2[nH]c1=O` (stereo not drawn) [Compound 135], for which the IC50 was 316 nM in assay [1] and 1000 nM in assay [3]. In assay [2], the minimal effective concentration is 0.2 µM.
